Target: T1, purified pig brain-derived tubulin (Sus scrofa, UniProt P02550+P02554)
T1 construct: purified pig brain-derived tubulin (final concentration: 2 mg/mL); purchased Cytoskeleton, Inc. (Denver, Colo., USA); host or cells: pig brain (tissue-purified)
Assay: Example 7: fluorescence-based assay of tubulin polymerization reaction
Type: biochemical
Method: S-nitroso-N-acetyl-D,L-penicillamine (SNAP), which is a NO donor, was purchased from Cayman Chemical Co. (Ann Arbor, Mich., USA) and used. A tubulin polymerization analysis kit was purchased from Cytoskeleton, Inc. (Denver, Colo., USA) and used. For paclitaxel, a paclitaxel included in the analysis kit was used as paclitaxel. Docetaxel was purchased from Sigma-Aldrich Co. (St. Louis, Mo., USA) and was used as docetaxel.
A fluorescence-based assay of tubulin polymerization reaction was carried out according to the manufacturer's instruction of the kit. That is, purified pig brain-derived tubulin (final concentration: 2 mg/mL) and SNAP (final concentration: 200 or 500 μmol/L) were incubated at room temperature for 15 minutes or longer in the buffer solution included in the kit. Subsequently, paclitaxel (final concentration: 3 μmmol/L) or docetaxel (final concentration: 1 μmol/L), and […] (final concentration: 1 mmol/L) were added to this buffer mixture, and then was incubated for 60 minutes at 37° C. During this incubation, the fluorescence intensity (measurement wavelength: excitation 350 nm/fluorescence 435 nm) was measured every one minute by using a microplate reader (Spectramax, Molecular Devices, LLC, Sunnyvale, Calif., USA). The value of fluorescence intensity was expressed as a percentage relative to the SNAP and taxane-untreated group by using the value obtained 60 minutes after the initiation of the reaction, which corresponded to the equilibrium steady-state phase, and the average value for three experiments was taken as the value.
The results are expressed as the mean value (Mean)±standard error (SEM) of five independent experiments. A comparison between a paclitaxel- or docetaxel-treated group and an untreated group was carried out by an unpaired statistical test (Student's t-test) of the difference between two groups. A comparison between a SNAP-untreated group (control group) and SNAP-treated groups (200 μmol/L and 500 μmol/L) in the presence or absence of the taxane-family drugs was carried out by Dunnett's multiple comparison test. A difference value of less than 5% was considered to be statistically significant. For the data processing, Graphpad Prism version 5.03 was used.

[1] = SNAP 200 or 500 μmol/L, 60 minutes

T1 sequence (P02554 whole entry): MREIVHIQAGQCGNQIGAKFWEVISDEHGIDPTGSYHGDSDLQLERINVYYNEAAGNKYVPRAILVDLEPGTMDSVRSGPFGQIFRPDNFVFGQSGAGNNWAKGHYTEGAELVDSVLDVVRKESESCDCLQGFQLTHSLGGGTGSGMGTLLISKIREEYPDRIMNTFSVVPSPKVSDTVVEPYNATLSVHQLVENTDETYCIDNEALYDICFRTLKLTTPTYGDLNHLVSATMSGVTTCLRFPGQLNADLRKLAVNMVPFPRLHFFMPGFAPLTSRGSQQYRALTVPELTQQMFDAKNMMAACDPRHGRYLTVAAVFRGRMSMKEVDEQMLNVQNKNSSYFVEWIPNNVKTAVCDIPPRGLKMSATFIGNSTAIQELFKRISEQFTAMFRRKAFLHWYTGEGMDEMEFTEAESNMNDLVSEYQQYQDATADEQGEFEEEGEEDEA
T1 sequence (P02550 whole entry): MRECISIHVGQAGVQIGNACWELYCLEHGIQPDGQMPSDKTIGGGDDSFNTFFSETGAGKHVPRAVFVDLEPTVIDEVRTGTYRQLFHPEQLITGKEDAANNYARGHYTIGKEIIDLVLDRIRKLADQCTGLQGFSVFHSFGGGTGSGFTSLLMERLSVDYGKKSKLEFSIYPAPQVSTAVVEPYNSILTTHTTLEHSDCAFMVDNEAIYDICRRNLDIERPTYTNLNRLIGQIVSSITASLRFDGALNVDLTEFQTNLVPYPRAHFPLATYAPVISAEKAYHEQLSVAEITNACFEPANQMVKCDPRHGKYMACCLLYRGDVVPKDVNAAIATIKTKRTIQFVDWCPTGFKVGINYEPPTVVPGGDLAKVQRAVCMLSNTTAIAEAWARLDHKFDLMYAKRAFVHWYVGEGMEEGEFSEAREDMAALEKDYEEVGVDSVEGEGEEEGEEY

SMILES	action of SNAP on the spontaneous tubulin polymerization reaction (SNAP 200 or 500 μmol/L, absence of taxanes, 60 minutes)	action of SNAP on the tubulin polymerization reaction promoted by docetaxel [1]	action of SNAP on the tubulin polymerization reaction promoted by paclitaxel [1]	tubulin polymerization (fluorescence intensity) as compared with the taxane-untreated group (docetaxel final concentration 1 μmol/L, 60 minutes after initiation, P<0.001) [%]
CC(=O)NC(C(=O)O)C(C)(C)SN=O (racemic) [SNAP, S-nitroso-N-acetyl-D,L-penicillamine]	significantly suppressed	significantly suppressed	significantly suppressed	–
CC(=O)O[C@@]12CO[C@@H]1C[C@H](O)[C@@]1(C)C(=O)[C@H](O)C3=C(C)[C@@H](OC(=O)[C@H](O)[C@@H](NC(=O)OC(C)(C)C)c4ccccc4)C[C@@](O)([C@@H](OC(=O)c4ccccc4)[C@H]21)C3(C)C [docetaxel]	–	–	–	184.1
